Activity calls are given as the source filed them. The rule behind the calls is not given here.
system: Salmonella Typhi PhoP-promoter GFP reporter, low Mg2+, 4 h; assay: PhoP promoter GFP reporter reduction in Typhi – purified and synthesized compounds, set 2, PhoP regulon inhibitor project, dose response (AID 2839); conditions: not given

Row | Compound | IC50 [µM]
1 | Cc1ccc(CN2CCCN(C(=O)Nc3ccc(Cl)cc3)C2)cc1 | 46.2
2 | O=C(Nc1ccc(Br)cc1)N1CCCN(Cc2ccccc2F)C1 | 61.6
3 | CN1CCc2nc(SCC(=O)Nc3cccc(F)c3)c(C#N)c(-c3cccs3)c2C1 | 0.05
4 | COc1c(N2CCN(C(=S)NCc3ccccc3)C(C)C2)c(F)cc2c(=O)c(C(=O)O)cn(C3CC3)c12 (stereo not drawn) | 79.1
5 | O=C1C2=C(Nc3ccccc3SC2c2ccsc2)c2ccccc21 (stereo not drawn) | 34.5
6 | S=C(NCc1ccc(Cl)cc1)Nc1ccncc1 | 15.9
7 | CCn1cc(C(=O)O)c(=O)c2cc(F)c(N3CCN(C(=S)NC(=O)c4ccccc4F)CC3)cc21 | 95.9
8 | CCCCn1c(NS(=O)(=O)c2ccc(C)cc2)c(S(=O)(=O)c2ccccc2)c2nc3ccccc3nc21 | < 0.15
9 | S=C(NCc1ccccc1Cl)Nc1ccncc1 | 131
10 | COc1cccc(C2Sc3ccccc3NC3=C2C(=O)c2ccccc23)c1 (stereo not drawn) | 33.4
11 | O=C(Nc1nnc(-c2cccs2)o1)c1cccc(C(F)(F)F)c1 | 80.1
12 | O=C1C2=C(Nc3ccccc3SC2c2ccc(I)cc2)c2ccccc21 (stereo not drawn) | 3.67
13 | CCCCn1c(NS(=O)(=O)c2ccccc2)c(S(=O)(=O)c2ccc(C)cc2)c2nc3ccccc3nc21 | < 0.15
14 | CCn1cc(C(=O)O)c(=O)c2cc(F)c(N3CCN(C(=S)Nc4ccc(Cl)cc4)CC3)cc21 | 60.8
15 | N#C/C(=C\c1ccc[nH]1)C(=O)NC1CC1 | 60.4
16 | O=C(Nc1ccc(Cl)cc1)N1CCCN(Cc2ccc(F)cc2)C1 | 61.4
17 | Cc1ccc(Nc2cc(C)c3c(O)cccc3n2)cc1C | 9.67
18 | CN(C)CCCN(C(=O)CCc1ccccc1)c1nc2ccc(Cl)cc2s1 | < 0.15
19 | O=C1C2=C(Nc3ccccc3SC2c2ccco2)c2ccccc21 (stereo not drawn) | 16.8

Row | Compound | IC50 [µM]
20 | COc1ccccc1Nc1nc(NCc2ccco2)c2ccccc2n1 | < 0.15
21 | O=C(Nc1cccnc1)c1cc(Br)c(Br)s1 | < 0.15
22 | O=C(O)c1cn(-c2ccc(F)cc2)c2cc(Cl)c(F)cc2c1=O | < 0.15
23 | O=C1c2ccccc2C2=Nc3ccccc3SC(c3ccccc3F)C12 (stereo not drawn) | < 0.15
24 | COc1ccccc1NC(=O)N1CCCN(Cc2ccccc2F)C1 | 136
25 | CCCCCNC(=O)c1cn(CC)c2cc(N3CCN(C)CC3)c(F)cc2c1=O | < 0.15
26 | CCn1cc(C(=O)O)c(=O)c2cc(F)c(N3CCN(C(=S)NC(=O)c4ccccc4Cl)CC3)cc21 | 20.5
27 | O=C(Nc1ccc(Cl)cc1)N1CCCN(Cc2ccccc2F)C1 | 31.3
28 | CCn1cc(C(=O)O)c(=O)c2cc(F)c(N3CCN(C(=S)Nc4ccccc4C(F)(F)F)CC3)cc21 | 24.1
29 | O=c1c2ccccc2[nH]c2ccc(F)cc12 | < 0.15
30 | CCOc1ccc(NC(=S)N2CCN(c3cc4c(cc3F)c(=O)c(C(=O)O)cn4CC)CC2)cc1 | 47.6
31 | O=S(=O)(Nc1c(S(=O)(=O)c2ccccc2)c2nc3ccccc3nc2n1C1CCCCC1)c1ccccc1 | < 0.15
32 | O=C(Nc1ccccc1)N1CCCN(Cc2ccc(F)cc2)C1 | 72.2
33 | CN1CCN(C2=Cc3cc(Cl)ccc3Sc3cc(F)ccc32)CC1 | 53.7
34 | O=[N+]([O-])c1ccc(CNC2CCCc3ccccc32)cc1 (stereo not drawn) | 16.6
35 | COc1ccc(NC(=O)c2cc(Br)c(Br)s2)cn1 | < 0.15
36 | O=C1C2=C(Nc3ccccc3SC2c2ccc(C(F)(F)F)cc2)c2ccccc21 (stereo not drawn) | < 2.35
37 | C1=C(CCNc2ncnc3c2[nH]c2ccccc23)CCCC1 | 106
38 | COc1ccc(CNC(=S)Nc2ccncc2)cc1 | 48.1

system: not listed separately; assay: as above; conditions: Salmonella Typhi PhoP-promoter GFP reporter, low Mg2+, 4 h; at 150 µM (top of the series)

Row | Compound | inhibition
39 | S=C(NCc1ccc(Cl)cc1)Nc1cccnc1 | -36.6% (inactive)
40 | O=C(Nc1ccccc1Cl)N1CCCN(Cc2ccccc2F)C1 | 16.8% (inactive)
41 | Fc1ccccc1NC(=S)NCc1ccc(Cl)cc1 | -0.65% (inactive)
42 | CCn1cc(C(=O)O)c(=O)c2cc(F)c(N3CCN(C(=S)NCc4ccccc4)CC3)cc21 | 9.85% (inactive)
43 | COc1cccc(NC(=S)NCc2ccc(Cl)cc2)c1 | -3.63% (inactive)
44 | O=C1C2=C(Nc3ccccc3SC2c2ccccc2C(F)(F)F)c2ccccc21 (stereo not drawn) | 7.29% (inactive)
45 | S=C(NCc1ccc(Cl)cc1)Nc1ccc(Cl)cc1 | 22.4% (inactive)
46 | CCn1cc(C(=O)O)c(=O)c2cc(F)c(N3CCN(C(=S)NC)CC3)cc21 | 4.25% (inactive)
47 | COc1ccc(NC(=S)NCc2ccc(Cl)cc2)cc1 | 8.24% (inactive)
48 | S=C(NCc1ccc(Cl)cc1)Nc1ccc(Br)cc1 | 6.57% (inactive)
49 | Cc1ccc(NC(=S)NCc2ccc(Cl)cc2)cc1 | 13.6% (inactive)
50 | S=C(NCc1ccc(Cl)cc1)Nc1cccc(Cl)c1 | 29.4% (inactive)
51 | Cc1cccc(NC(=S)NCc2ccc(Cl)cc2)c1 | 16.8% (inactive)
52 | O=C(Nc1ccccc1)N1CCCN(Cc2ccccc2F)C1 | 28.7% (inactive)
53 | O=C(NCc1ccccc1)N1CCCN(Cc2ccccc2F)C1 | 6.93% (inactive)
